The nature of assay [1]: In vitro free radical inhibition test (DPPH method). The note with it: 8 μL of 20 mmol/L compound in 1 mL DPPH 0.059 mg/mL ethanol, 60 min dark, 517 nm; for inhibition rate %: DPPH; for Relative inhibition ability on free radicals: inhibition rate of AGI1067 on DPPH defined as 100. The text has this:
1. In Vitro Free Radical Inhibition Test (DPPH Method)
The single electron of DPPH radical has a strong absorption at […], and its alcohol solution is purple. In the presence of a free radical scavenger, the absorption of DPPH radical is weakened or disappeared for the reason that the free radical scavenger is paired with the single electron of DPPH radical, and the degree of discoloration is quantitatively related to the number of electrons DPPH radical receives. Therefore, a spectrophotometer can be used to quickly and quantitatively analyze the free radical scavenging rate of the compound.
1) 1 mL solution of DPPH in absolute ethanol (concentration: 0.059 mg/mL) was taken; 2) 8 μL of the compound to be tested (20 mmol/L) were added; 3) after mixing well, the resultant was kept in dark at room temperature for 60 minutes, 4) the absorbance of the sample at 517 nm was measured.
Background: DPPH is a stable violet radical that fades when it is reduced.

For assay [2], the system named is Malondialdehyde (MDA) in serum. The assay can be described thus: In vivo anti-lipid oxidation experiment (serum MDA, TBA method). Details: inhibition rate %: concentration or dose not given beside the values. The note with it: MAD lipid peroxidation in vivo; for inhibition rate %: relative to solvent DMSO and Chow averages; for avarage value of OD: serum, TBA method, 532 nm. The text has this:
Experimental principle: Malondialdehyde (MDA) in liposome degradation products could condense with thiobarbituric acid (TBA) to form a red product which has a maximum absorption peak at 532 nm. The spectrophotometer was used to measure the relative absorption value to calculate the antioxidant value.
Reagents: Malondialdehyde (MDA) test kit (article number: A003-1, […], Nanjing Jiancheng), glacial acetic acid of analytically pure grade.
Reagent preparations: 1) Reagent I: Reagent 1 in the kit was taken out from the refrigerator and subjected to natural warming until a transparent liquid is obtained; 2) Reagent II: 170 mL of double-distilled water was added to each bottle and mixed; 3) Reagent III: A dry powder in the kit was dissolved in 60 mL of double-distilled water at 90 to 100° C. After the dry powder was dissolved totally, 30 mL of glacial acetic acid was added and kept in dark place; 4) Standard: 10 nmol/mL tetraethoxypropane.
Experimental procedures: 1) Blank tube: To 2 mL centrifuge tube were added anhydrous ethanol (70 μl), Reagent I (70 μl), Reagent II (0.8 mL) and Reagent III (0.8 mL) in sequence; 2) Standard tube: To 2 mL centrifuge tube were added standard (70 μl), Reagent I (70 μl), Reagent 11 (0.8 mL) and Reagent III (0.8 mL) in sequence; 3) Measuring tube: To 2 mL centrifuge tube were added the serum to be tested and physiological saline (the total volume of serum and physiological saline is 70 μl), Reagent I (70 μl), Reagent II (0.8 mL) and Reagent III (0.8 mL) in sequence; 4) Control tubes: all samples are set up with corresponding control tubes. To a 2 mL centrifuge tube were added the serum to be tested and physiological saline (the total volume of serum and physiological saline is 70 μl), Reagent I (70 μl), Reagent II (0.8 mL) and 50% glacial acetic acid (0.8 mL) in sequence.
After the above reagents were added, the mixture was mixed homogenously. Then the mixture was left in the water bath at 95° C. for 60 minutes. The sample was centrifuged at 4000 rpm for 10 minutes. The supernatant was taken for the measurement of the OD value.
Experimental data processing: the MDA content in serum was calculated as follows: MDA=(OD valuemeasured−OD valuecontrol)/OD valuestandard*concentration of the standard Inhibition rate %=100−(ODsample-average value−average value of Chow)/(average value of the solvent DMSO−average value of Chow)*100

The test system of assay [3] is golden hamsters (60% high-fat food, STZ induced). The assay can be described thus: Golden hamster disease model, animal model induction group (16-week-old group): blood biochemical indexes and body weight. It counts as in vivo. The method, then:
Animals and feed: 1) 8-week-old male golden hamsters with a body weight range of 100±5 g were selected; 2) 60% high-fat food; 3) 30% high-fat food; 4) general feed: NRC standard feed, containing 5% fat, total calories 4200 kcal/kg.
Animal model induction group (16-week-old group): 1) fed with 60% high-fat food for 2 weeks under standard environment; 2) STZ intraperitoneal injection twice every two days, 50 mg/kg each time; 3) After STZ induction, the golden hamsters were continuous fed for 1 week; 4) Blood was taken from the ocular venous plexus, and the initial body weight, blood glucose, total cholesterol, LDL-c, HDL-c and triglyceride were measured, and the golden hamsters were grouped in parallel according to animal biochemical indicators, 8 in each group; 5) Gavage of compounds: 0.1 mL of solution of compound (concentration: 6.8 mg/mL, DMSO solution) and 0.25 mL of whole milk were mixed evenly and administrated by gavage once a day for 2 weeks; 6) Blank control: 0.1 mL of DMSO and 0.25 mL of whole milk were mixed evenly and administrated by gavage once a day for 2 weeks; 7) Observation time: 14 days later, blood was taken from the ocular venous plexus, and the body weight, blood glucose, total cholesterol, LDL-c, HDL-c and triglyceride were measured.
Instruments: Shimadzu UV-1750 spectrophotometer, clinical determination kit (Changchun Huili Biotechnology Co., Ltd.)
Determination of blood glucose: glucose oxidase method, kit
Determination of total cholesterol (COD-PAP method), kit
Determination of low density lipoprotein cholesterol (direct method), kit
Determination of triglyceride (GP-PAP method)
Determination of high density lipoprotein (direct method), kit

Where [4] appears, read: after gavage once a day for 2 weeks.
Setting [5] is: change rate, gavage once a day for 2 weeks.

Structures are written as SMILES.

`CC(C)(Sc1cc(C(C)(C)C)c(O)c(C(C)(C)C)c1)Sc1cc(C(C)(C)C)c(O)c(C(C)(C)CCO)c1` [Compound 8, 2,6-di-tert-butyl-4-((2-((3-(tert-butyl)-4-hydroxy-5-(4-hydroxy-2-methylbutan-2-yl)phenyl)thio)propan-2-yl)thio)phenol]: in assay [1], the inhibition rate % was 37.7% and the “Relative inhibition ability on free radicals” value is 86.5. In addition, in assay [2], the inhibition rate % was 59.8% and the “avarage value of OD” value amounted to 6.98. Besides, the “change rate of blood glucose %” value in assay [3] (0.1 mL of 6.8 mg/mL DMSO solution + 0.25 mL whole milk by gavage once a day for 2 weeks) is listed as 48.6%. For the same molecule, the “change rate of body weight after deduction of DMSO blank %” value in assay [3] (DMSO blank deducted) is recorded as −6.1%. Further, in assay [3] (setting [4]), the “average body weight after administration/g” value was 149.0 g, the “change of body weight/g” value turned out to be 5.3 g and the “change rate of body weight %” value is given as 3.7%. In addition, in assay [3] (setting [5]), the HDL % is listed as 60.2%, the LDL % is 11.1%, the total cholesterol % is −7.6% and the triglyceride % was determined as 59.1%.
For the molecule `CC(C)(Sc1cc(C(C)(C)C)c(O)c(C(C)(C)C)c1)Sc1cc(C(C)(C)C)c(O)c(C(C)(C)CCOCCN2CCOCC2)c1` [Compound 18, 2,6-di-tert-butyl-4-((2-((3-(tert-butyl)-4-hydroxy-5-(2-methyl-4-(2-morpholinoethoxy)butan-2-yl)phenyl)thio)propan-2-yl)thio)phenol], in assay [1], the inhibition rate % is 23.5% and the “Relative inhibition ability on free radicals” value is on record as 53.8. For the same molecule, in assay [2], the inhibition rate % is reported as 53.8% and the “avarage value of OD” value was found to be 7.21.
For `CC(C)(Sc1cc(C(C)(C)C)c(O)c(C(C)(C)C)c1)Sc1cc(C(C)(C)C)c(O)c(C(C)(C)CCOC(=O)CN)c1` [Compound 19, 3-(3-(tert-butyl)-5-((2-((3,5-di-tert-butyl-4-hydroxyphenyl)thio)propan-2-yl)thio)-2-hydroxyphenyl)-3-methylbutyl glycinate], in that order: 32.1%, 42.6, 27.9% and 8.21.
For `CC(N)C(=O)OCCC(C)(C)c1cc(SC(C)(C)Sc2cc(C(C)(C)C)c(O)c(C(C)(C)C)c2)cc(C(C)(C)C)c1O` (stereo not shown) [Compound 20, 3-(3-(tert-butyl)-5-((2-((3,5-di-tert-butyl-4-hydroxyphenyl)thio)propan-2-yl)thio)-2-hydroxyphenyl)-3-methylbutyl alaninate], in that order: 26.3%, 38.9, 30.7% and 8.10.
On to `COC(=O)CN(CCC(C)(C)c1cc(SC(C)(C)Sc2cc(C(C)(C)C)c(O)c(C(C)(C)C)c2)cc(C(C)(C)C)c1O)CC(=O)OC` [Compound 22, dimethyl 2,2′-((3-(3-(tert-butyl)-5-((2-((3,5-di-tert-butyl-4-hydroxyphenyl)thio)propan-2-yl)thio)-2-hydroxyphenyl)-3-methylbutyl)azanediyl)diacetate], for which, in assay [1], the inhibition rate % turned out to be 42.6% and the “Relative inhibition ability on free radicals” value was found to be 97.6. For the same molecule, in assay [2], the inhibition rate % is 36.2% and the “avarage value of OD” value was determined as 7.89.
For `CC(C)(Sc1cc(C(C)(C)C)c(O)c(C(C)(C)C)c1)Sc1cc(C(C)(C)C)c(O)c(C(C)(C)CCn2cncn2)c1` [Compound 24, 2,6-di-tert-butyl-4-((2-((3-(tert-butyl)-4-hydroxy-5-(2-methyl-4-(1H-1,2,4-triazol-1-yl)butan-2-yl)phenyl)thio)propan-2-yl)thio)phenol], in that order: 19.2%, 34.8, 53.3% and 7.23.
Take `CC(C)(Sc1cc(C(C)(C)C)c(O)c(C(C)(C)C)c1)Sc1cc(C(C)(C)C)c(O)c(C(C)(C)CCNS(=O)(=O)C2CC2)c1` [Compound 25, N-(3-(3-(tert-butyl)-5-((2-((3,5-di-tert-butyl-4-hydroxyphenyl)thio)propan-2-yl)thio)-2-hydroxyphenyl)-3-methylbutyl)cyclopropanesulfonamide]: in assay [1], the inhibition rate % is given as 28.6% and the “Relative inhibition ability on free radicals” value is 29.3. In addition, in assay [2], the inhibition rate % is recorded as 48.1% and the “avarage value of OD” value was 7.43.
`CC(C)(Sc1cc(C(C)(C)C)c(O)c(C(C)(C)C)c1)Sc1cc(C(C)(C)C)c(O)c(C(C)(C)CCOC(=O)CCC(=O)NCCS(=O)(=O)O)c1` [Compound 27, 2-(4-(3-(3-(tert-butyl)-5-((2-((3,5-di-tert-butyl-4-hydroxyphenyl)thio)propan-2-yl)thio)-2-hydroxyphenyl)-3-methylbutoxy)-4-oxobutanamido)ethane-1-sulfonic acid]: in assay [1], the inhibition rate % worked out at 18.1% and the “Relative inhibition ability on free radicals” value worked out at 41.5. For the same molecule, in assay [2], the inhibition rate % came out at 30.2% and the “avarage value of OD” value came to 8.12.
With `CC(C)(C)C1=CC(=C2C=C(C(C)(C)C)C(=O)C(C(C)(C)C)=C2)C=C(C(C)(C)C)C1=O` [Compound 29, 3,3′,5,5′-tetra-tert-butyl-[1,1′-bi(cyclohexylidene)]-2,2′,5,5′-tetraene-4,4′-dione, reference compound], in assay [1], the inhibition rate % amounted to 8.8% and the “Relative inhibition ability on free radicals” value was 20.1. In assay [2], the inhibition rate % turned out to be 7.9% and the “avarage value of OD” value came to 8.98.
For `CC(C)(Sc1cc(C(C)(C)C)c(O)c(C(C)(C)C)c1)Sc1cc(C(C)(C)C)c(OC(=O)CCC(=O)O)c(C(C)(C)C)c1` [Compound 31, 4-(2,6-di-tert-butyl-4-((2-((3,5-di-tert-butyl-4-hydroxyphenyl)thio)propan-2-yl)thio)phenoxy)-4-oxobutanoic acid, reference compound], in that order: 43.6%, 100.0, 49.1% and 7.39.

Values taken from patent US11649220B2 (DEMOTECH.INC., priority 2018, dated 2023).
